Earlier results as cited in PMC4366302 (Organic & biomolecular chemistry, 2015).

Conditions: known inherent solubilities

| S0 (inherent solubility of drug) | Compound |
| --- | --- |
| 63 ± 3.5 µM | O=C1Cc2cc(CCN3CCN(c4nsc5ccccc45)CC3)c(Cl)cc2N1 [Ziprasidone, ziprasidone] |
| 4.5 ± 0.90 µM | O=C(NC1=CC(=O)[C@H]2O[C@H]2[C@H]1O)c1cc2ccccc2[nH]c1=O [PBS-1086] |
